The text below walks through data of paper PMC6643834 (ACS Omega, 2018).

In assay [1] the test system is P. aeruginosa PAO1 static biofilms. The experiment in a line: Static biofilm assay, P. aeruginosa. Type of assay: cell-based, Pseudomonas aeruginosa.
The subject of the next assay is Staph. aureus biofilm. In words: Static biofilm assay, Staph. aureus. The class given is cell-based, Staphylococcus aureus. The conditions noted are these: treating with CIP.
Assay [2] has as its system P. aeruginosa purine deoxyribonucleotide levels (bacterial RNR). The experiment in a line: DPA assay for dNTP quantification. Particulars: 5 mM for 3 h, exponential phase, compared to negative control. Type of assay: cell-based, P. aeruginosa PAO1.
Another assay has as its system class Ia RNR (NrdA). In words: NrdA expression by Western immunoblot. The class given is cell-based, P. aeruginosa PAO1. Particulars: 5 mM for 3 h, compared to the negative control.
In assay [3] the test system is P. aeruginosa continuous-flow biofilms. In words: Flow cell biofilm assay. The class given is cell-based, Pseudomonas aeruginosa. The conditions noted are these: COMSTAT analysis.
Assay [4] has as its system B. anthracis Sterne 7700 pXO1–/pXO2–. The experiment in a line: microbe, parasite or virus in culture. Type of assay: cell-based. Particulars: Bacillus anthracis, 8 h, read-out: MIC50 Gram-positive Bant.

With `O=C(O)c1cn(C2CC2)c2cc(N3CCNCC3)c(F)cc2c1=O` [CIP, ciprofloxacin, reference compound], the “reduction of preestablished biofilm” value in assay [1] (CIP 0.5 μg/mL, positive control) is on record as “more than 85%”. In the assay on Staph. aureus biofilm, the “reduction of Staph. aureus biofilm” value was “around 60%”.
`Cc1cc(F)ccc1CNO` [Compound 12, N-(4-Fluoro-2-methylbenzyl)hydroxylamine]: the “reduction of dNTP levels” value in assay [2] was found to be 67.50%. For the same molecule, in the assay on class Ia RNR (NrdA), the “induction of NrdA expression (fold)” value stood at 3. For the same molecule, the “reduction of established biofilm” value in assay [1] (after 72 h of treatment, highest concentrations) is listed as “above 55%”. Moreover, the “decrease of biomass and average thickness” value in assay [3] was “more than 30%”.
As to `COc1ccc(CNO)c(C)c1` [Compound 17, N-(4-Methoxy-2-methylbenzyl)hydroxylamine], the MIC50 in assay [4] is less than 15 µg/mL.
Take `NC(=O)NO` [HU, hydroxyurea, reference compound]: the “reduction of dNTP levels” value in assay [2] was determined as 65.45%.
